Data reported in patent US7820683B2, “4-(1H-indazol-5-yl-amino)-quinazoline compounds as erbB receptor tyrosine kinase inhibitors for the treatment of cancer” (AstraZeneca AB, priority 2005, dated 2010).

Columns and labels:
[1] = molecular target: T1, EGFR tyrosine kinase (Homo sapiens, UniProt P00533); test: Protein tyrosine kinase phosphorylation assay, Test (a), EGFR; format: biochemical; settings: recombinant intracellular fragment, ATP at Km; read-out: IC50 Test (a): Inhibition of EGFR tyrosine kinase protein phosphorylation
T1 construct: Recombinant intracellular fragments of EGFR, erbB2 and erbB4; made in house; host or cells: baculovirus/Sf21 insect cells (cleared lysate used)
T1 sequence (P00533 669-1210 limits assumed): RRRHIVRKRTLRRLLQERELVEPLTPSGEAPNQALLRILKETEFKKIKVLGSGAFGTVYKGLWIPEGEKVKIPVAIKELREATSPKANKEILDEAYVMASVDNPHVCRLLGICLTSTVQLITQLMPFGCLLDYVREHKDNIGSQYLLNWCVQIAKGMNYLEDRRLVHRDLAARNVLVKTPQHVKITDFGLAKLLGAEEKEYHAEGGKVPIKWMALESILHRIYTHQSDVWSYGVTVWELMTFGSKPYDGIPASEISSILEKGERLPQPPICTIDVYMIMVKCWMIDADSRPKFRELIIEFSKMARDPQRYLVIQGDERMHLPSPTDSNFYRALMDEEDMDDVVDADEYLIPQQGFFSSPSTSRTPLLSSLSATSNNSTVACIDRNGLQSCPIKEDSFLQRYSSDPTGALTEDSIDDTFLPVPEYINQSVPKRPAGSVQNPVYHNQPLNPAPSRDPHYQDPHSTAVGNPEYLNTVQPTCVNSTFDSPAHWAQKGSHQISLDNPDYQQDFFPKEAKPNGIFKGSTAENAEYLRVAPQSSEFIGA
Method: (§1) This test measures the ability of a test compound to inhibit the phosphorylation of a tyrosine containing polypeptide substrate by EGFR, erbB2 and erbB4 tyrosine kinase enzyme.
(§2) Recombinant intracellular fragments of EGFR, erbB2 and erbB4 (accession numbers X00588, X03363 and L07868 respectively) were cloned and expressed in the baculovirus/Sf21 system. Lysates were prepared from these cells by treatment with ice-cold lysis buffer (20 mM N-2-hydroxyethylpiperizine-N′-2-ethanesulfonic acid (HEPES) pH7.5, 150 mM NaCl, 10% glycerol, 1% Triton X-100, 1.5 mM MgCl2, 1 mM ethylene glycol-bis(β-aminoethyl ether) N′,N′,N′,N′-tetraacetic acid (EGTA), plus protease inhibitors and then cleared by centrifugation.
(§3) Constitutive kinase activity of these recombinant proteins was determined by their ability to phosphorylate a synthetic peptide (made up of a random co-polymer of Glutamic Acid, Alanine and Tyrosine in the ratio of 6:3:1). […]
(§4) The immobilised phospho-peptide product of the reaction was detected by immunological methods. […]
(§5) Kinase inhibition for a given compound was expressed as an IC50 value. […] The range of phosphorylation was calculated from the positive (vehicle plus ATP) and negative (vehicle minus ATP) control values.

[2] = molecular target: T2, erbB2 tyrosine kinase (Homo sapiens, UniProt P04626); test: Protein tyrosine kinase phosphorylation assay, Test (a), erbB2; format: biochemical; settings: recombinant intracellular fragment, ATP at Km; read-out: IC50 Test (a): Inhibition of erbB2 tyrosine kinase protein phosphorylation
T2 construct: Recombinant intracellular fragments of EGFR, erbB2 and erbB4; made in house; host or cells: baculovirus/Sf21 insect cells (cleared lysate used)
T2 sequence (P04626 676-1255 limits assumed): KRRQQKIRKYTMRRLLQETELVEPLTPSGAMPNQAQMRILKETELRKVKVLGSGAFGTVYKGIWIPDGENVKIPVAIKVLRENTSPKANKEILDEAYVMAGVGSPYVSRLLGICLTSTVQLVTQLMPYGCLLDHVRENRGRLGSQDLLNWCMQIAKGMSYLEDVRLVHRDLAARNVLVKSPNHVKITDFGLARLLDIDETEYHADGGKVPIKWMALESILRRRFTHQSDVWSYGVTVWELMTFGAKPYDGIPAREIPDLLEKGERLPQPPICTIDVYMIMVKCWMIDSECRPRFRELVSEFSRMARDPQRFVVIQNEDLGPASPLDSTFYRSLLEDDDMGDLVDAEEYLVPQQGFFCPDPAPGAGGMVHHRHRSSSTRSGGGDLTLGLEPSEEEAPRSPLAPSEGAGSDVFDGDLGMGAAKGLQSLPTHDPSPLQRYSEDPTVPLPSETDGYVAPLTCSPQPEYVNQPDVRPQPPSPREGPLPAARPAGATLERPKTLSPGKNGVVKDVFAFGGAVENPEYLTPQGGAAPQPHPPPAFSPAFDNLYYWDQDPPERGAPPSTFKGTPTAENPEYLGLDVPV
Method: as §1, §2, §3, §4, §5

[3] = test system: phosphorylation of erbB2 in a MCF7 derived cell line (Clone 24 cells); test: Clone 24 phospho-erbB2 cell assay, Test (c); format: cell-based; settings: Homo sapiens; MCF7 derived Clone 24 cells, 4 hours; read-out: IC50 Test (c): Inhibition of erbB2 tyrosine kinase protein phosphorylation
Method: This immunofluorescence end point assay measures the ability of a test compound to inhibit the phosphorylation of erbB2 in a MCF7 (breast carcinoma) derived cell line which was generated by transfecting MCF7 cells with the full length erbB2 gene using standard methods to give a cell line that overexpresses full length wild type erbB2 protein (hereinafter ‘Clone 24’ cells).
Clone 24 cells were cultured in Growth Medium (phenol red free Dulbecco's modified Eagle's medium (DMEM) containing 10% foetal bovine serum, 2 mM glutamine and 1.2 mg/ml G418) in a 7.5% CO2 air incubator at 37° C. […] Cell density was measured using a haemocytometer and viability was calculated using Trypan Blue solution before being further diluted in Growth Medium and seeded at a density of 1×10^4 cells per well (in 100 ul) into clear bottomed 96 well plates (Packard, No. 6005182). […]
Immunostaining was performed at room temperature. […] Plates were analysed within six hours of completing the immunostaining.
The Fluorescence signal is each well was measured using an Acumen Explorer Instrument (Acumen Bioscience Ltd.), a plate reader that can be used to rapidly quantitate features of images generated by laser-scanning. […]

Compound | IC50 [1] [nM] | IC50 [2] [nM] | IC50 [3] [nM]
C[C@@H](Oc1cccc2ncnc(Nc3ccc4c(cnn4Cc4ccccn4)c3)c12)C(=O)N(C)CCO [Example 1, (2R)—N-(2-Hydroxyethyl)-N-methyl-2-[(4-{[1-(pyridin-2-ylmethyl)-1H-indazol-5-yl]amino}quinazolin-5-yl)oxy]propanamide] | 210 | 12 | 
C[C@@H](Oc1cccc2ncnc(Nc3ccc4c(cnn4Cc4ccccn4)c3)c12)C(=O)N1CCOCC1 [Example 2, 5-[(1R)-1-Methyl-2-morpholin-4-yl-2-oxoethoxy]-N-[1-(pyridin-2-ylmethyl)-1H-indazol-5-yl]quinazolin-4-amine] |  |  | 35
